# Experimental data published in patent US11079398B2, “Method for measurement of peptidic degradation products of a proteolytic cascade in blood samples” (ATTOQUANT DIAGNOSTICS GMBH, priority 2012, dated 2021).
# Legend:
# [1] = test system: renin-angiotensin system (RAS); assay: RSSE-Fingerprinting: blood incubated at 37° C. with added agents, LC-MS/MS quantification of angiotensin peptides; type: biochemical, human; conditions: for Ang 1-8 steady state equilibrium level compared to control / Ang 1-10 steady state equilibrium level compared to control: heparinised blood, agent added prior to incubation at 37° C., 2 h or 4 h
# Protocol: Blood samples were collected and anti-coagulated with standardised heparin tubes (BD). As indicated in FIGS. 3A-3C, plasma separation has been done for the respective samples before the incubation to reach steady state equilibrium.
# Following plasma separation by centrifugation at 3000 rcf for 10 minutes at 4° C., […] of plasma was applied onto an activated and equilibrated SEP-PAK™ C18 cartridge. Sample matrix components were removed by washing three times with 1 ml water. Bound analytes were then eluted with 1 ml of methanol. Eluates were evaporated to dryness and reconstituted in 10% acetonitril/90% water supplemented with 0.1% formic acid followed by subjection to LC-MS/MS analysis.
# A vacuum manifold has been used for sample processing. • 1. Activation: EtOH abs. • 2. Equilibration: 2×1 ml H2O • 3. Loading: 0.2-1 ml stabilised plasma • 4. Washing: 3×1 ml H2O • 5. Elution: 1 ml MeOH Quantification and Signal Integration
# MRM chromatograms were integrated using Analyst 1.5.1 software provided by Applied Biosystems. The threshold for the quantification limit was set at a signal-to-noise ratio of 10. Integration signals not reaching this ratio were set to zero. Analyte signals were related to internal standard signals and concentration was calculated from initially spiked amounts of internal standards.
# ACE2 = ACE2 (Homo sapiens, UniProt Q9BYF1); conditions: artificial matrix, vast excess of substrates; cited from earlier work
# ACE2, sequence (Q9BYF1 18-805): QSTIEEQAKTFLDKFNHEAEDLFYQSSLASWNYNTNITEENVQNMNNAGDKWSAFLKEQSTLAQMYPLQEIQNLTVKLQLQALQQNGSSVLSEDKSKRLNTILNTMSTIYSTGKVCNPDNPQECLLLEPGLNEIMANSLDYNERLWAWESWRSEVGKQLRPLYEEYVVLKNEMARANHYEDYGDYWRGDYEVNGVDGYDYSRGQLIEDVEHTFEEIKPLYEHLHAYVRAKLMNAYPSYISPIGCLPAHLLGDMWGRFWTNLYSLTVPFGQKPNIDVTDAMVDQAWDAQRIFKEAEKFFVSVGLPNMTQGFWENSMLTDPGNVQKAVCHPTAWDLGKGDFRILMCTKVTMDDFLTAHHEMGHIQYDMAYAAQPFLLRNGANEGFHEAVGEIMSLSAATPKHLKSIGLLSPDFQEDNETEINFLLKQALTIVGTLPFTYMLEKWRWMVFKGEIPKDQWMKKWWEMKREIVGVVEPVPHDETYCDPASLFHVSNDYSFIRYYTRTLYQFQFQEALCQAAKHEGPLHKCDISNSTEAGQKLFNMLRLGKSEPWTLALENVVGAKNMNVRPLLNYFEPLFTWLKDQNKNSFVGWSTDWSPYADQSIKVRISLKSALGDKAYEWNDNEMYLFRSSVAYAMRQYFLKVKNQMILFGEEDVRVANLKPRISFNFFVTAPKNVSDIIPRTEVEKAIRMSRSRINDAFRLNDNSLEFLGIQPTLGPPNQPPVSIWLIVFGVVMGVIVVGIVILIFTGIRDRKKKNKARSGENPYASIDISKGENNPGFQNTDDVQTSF
compound,measurement,setting,value
CC(C)C[C@@H](N)[C@H](O)C(=O)N[C@H](C(=O)N[C@H](C(=O)N[C@@H](CC(=O)O)C(=O)O)C(C)C)C(C)C [Amastatin],steady state equilibrium Ang 1-10 level in the presence of ACE2 (ACE2 mediated Ang 1-9 production),"[1]; FIG. 2C1/2C3, 2 h incubation",further increases
same,Ang 1-8 steady state equilibrium level compared to control,[1],massively increase
C[C@H](CS)C(=O)N1CCC[C@H]1C(=O)O [Captopril],Ang 1-8 steady state equilibrium level compared to control,[1],decreased
same,Ang 1-10 steady state equilibrium level compared to control,[1],increased
NCCCC[C@H](N[C@@H](CCc1ccccc1)C(=O)O)C(=O)N1CCC[C@H]1C(=O)O [Lisinopril],Ang 1-8 steady state equilibrium level compared to control,[1],decreased
same,Ang 1-10 steady state equilibrium level compared to control,[1],increased
ACE2: recombinant soluble human ACE2 produced by Apeiron Biologics,shift of RSSE-Fingerprint,[1]; 5 μg/ml enzyme added prior to incubation,shifted as expected
"angiotensin II (DRVYIHPF; Angiotensin-2; UniProt P01019 25-32, looked up) [Ang 1-8, angiotensin peptide, ACE2 substrate]",maximal ACE2 conversion rate for Ang 1-8 to Ang 1-7 relative to conversion rate for Ang 1-10 to Ang 1-9,ACE2,65 times
